≈ marks a conversion by molar mass, not a printed value.
Assay: Solubility in water of the cyclodextrin derivatives
Assay type: physicochemical

SMILES	solubility [mg/mL]
NC(CCC(=O)NC[C@H]1O[C@@H]2O[C@H]3[C@H](O)[C@@H](O)[C@@H](O[C@H]4[C@H](O)[C@@H](O)[C@@H](O[C@H]5[C@H](O)[C@@H](O)[C@@H](O[C@H]6[C@H](O)[C@@H](O)[C@@H](O[C@H]7[C@H](O)[C@@H](O)[C@@H](O[C@H]8[C@H](O)[C@@H](O)[C@@H](O[C@H]1[C@H](O)[C@H]2O)O[C@@H]8CO)O[C@@H]7CO)O[C@@H]6CO)O[C@@H]5CO)O[C@@H]4CO)O[C@@H]3CO)C(=O)O (stereo partly drawn) [Example 1(b), mono[N-(4-amino-4-carboxybutyryl)amino]-6-deoxy-β-cyclodextrin]	> 1000
NC(CC(=O)NC[C@H]1O[C@@H]2O[C@H]3[C@H](O)[C@@H](O)[C@@H](O[C@H]4[C@H](O)[C@@H](O)[C@@H](O[C@H]5[C@H](O)[C@@H](O)[C@@H](O[C@H]6[C@H](O)[C@@H](O)[C@@H](O[C@H]7[C@H](O)[C@@H](O)[C@@H](O[C@H]8[C@H](O)[C@@H](O)[C@@H](O[C@H]1[C@H](O)[C@H]2O)O[C@@H]8CO)O[C@@H]7CO)O[C@@H]6CO)O[C@@H]5CO)O[C@@H]4CO)O[C@@H]3CO)C(=O)O (stereo partly drawn) [Example 2(b), mono[N-(3-amino 3-carboxypropionyl)amino]-6-deoxy-β-cyclodextrin]	> 1000
NC(Cc1ccc(OCC(=O)NC[C@H]2O[C@@H]3O[C@H]4[C@H](O)[C@@H](O)[C@@H](O[C@H]5[C@H](O)[C@@H](O)[C@@H](O[C@H]6[C@H](O)[C@@H](O)[C@@H](O[C@H]7[C@H](O)[C@@H](O)[C@@H](O[C@H]8[C@H](O)[C@@H](O)[C@@H](O[C@H]9[C@H](O)[C@@H](O)[C@@H](O[C@H]2[C@H](O)[C@H]3O)O[C@@H]9CO)O[C@@H]8CO)O[C@@H]7CO)O[C@@H]6CO)O[C@@H]5CO)O[C@@H]4CO)cc1)C(=O)O (stereo partly drawn) [Example 3, mono [N-4-(2'-amino 2'-carboxy ethyl) 1-(phenyloxymethylcarbonyl)amino]6-deoxy β-cyclodextrin]	900 (≈ 664 mM)

From patent publication US5631244A, “mono(6-amino-6-deoxy)cyclodextrin derivatives substituted in the 6-position by an α-amino acid residue, process for their preparation and their uses” (L'Oreal, priority 1993, dated 1997)
